# In patent publication US20090176755A1, “PHARMACEUTICAL COMPOSITIONS COMPRISING AN ANTIBIOTIC” (priority 2005, published 2009):
# Assay: Exposure of form B crystals to high relative humidity or water (polymorphic transformation)
# Type: physicochemical
# Source text: Usually minutes of exposure to high humidity and seconds of exposure to water, such as within an suspension, are sufficient for this transformation. Such conditions are for example found during pharmaceutical production in countries with a humid climate.
smiles,measurement,setting,value
"C=CC1=C(C(=O)O)N2C(=O)C(NC(=O)C(=NO)c3csc(N)n3)[C@H]2SC1 (stereo partly drawn) [crystalline form B of cefdinir, 7-[2-(2-aminothiazol-4-yl)-2-hydroxyiminoacetamido]-3-vinyl-3-cephem-4-carboxylic acid]",exposure time sufficient for transformation into a different polymorphic form,exposure to high humidity,minutes
same,exposure time sufficient for transformation into a different polymorphic form,"exposure to water, such as within a suspension",seconds
same,relative humidity at which form B transforms into a different polymorphic form with reduced stability,form B crystals exposed to humid conditions,higher than 65%
